Experimental data from publication PMC8658016, “Identification of New Compounds with Anticonvulsant and Antinociceptive Properties in a Group of 3-substituted (2,5-dioxo-pyrrolidin-1-yl)(phenyl)-Acetamides” (International Journal of Molecular Sciences, 2021).
Read-outs that look alike come from different tables or passages of the source.

Experiments:
[1] = tested on: mice; test: Maximal electroshock seizure (MES) test; type: in vivo, mouse; conditions: mice i.p.; for ED50: Mus musculus, ip, 95% confidence interval in parentheses; for MES screening: number of mice protected / number of mice tested / protection in the MES test: 100 mg/kg, 0.5 h
[2] = tested on: mice; test: Psychomotor 6 Hz (32 mA) seizure test; type: in vivo, mouse; conditions: mice i.p.; for ED50: Mus musculus, ip, 95% confidence interval in parentheses; for 6 Hz (32 mA) screening: number of mice protected / number of mice tested / protection in the 6 Hz (32 mA) test: 100 mg/kg, 0.5 h
[3] = tested on: mice; test: Subcutaneous pentylenetetrazole (scPTZ) seizure test; type: in vivo, mouse; conditions: mice i.p.; for ED50: Mus musculus, ip, 95% confidence interval in parentheses; for protection in the scPTZ test / scPTZ screening: number of mice protected / number of mice tested: 100 mg/kg, 0.5 h
[4] = in vivo; conditions: male, CD-1, mouse, ip
[5] = tested on: TTX-sensitive Na+ channel; test: Radioligand binding, TTX-sensitive Na+ channel; conditions: rat cerebral cortex
[6] = target: T1, TRPV1 (VR1) (h) (Homo sapiens, UniProt Q8NER1); test: TRPV1 (VR1) functional assay, antagonist effect; type: cell-based; conditions: HEK293, human recombinant HEK-293 cells, read-out: % Inhibition of Control Agonist Response, TRPV1 (VR1) (h) (antagonist effect)
T1 construct: Cerep Laboratories / Eurofins Panlabs (contract assay)

[7] = tested on: Cav1.2 channel (dihydropyridine site, antagonist radioligand); test: Radioligand binding, Cav1.2 channel (dihydropyridine site); conditions: rat cerebral cortex
[8] = target: Cav1.2 (h) calcium ion channel (Homo sapiens, UniProt Q13936); test: Cav1.2 calcium ion channel cell based antagonist calcium flux assay; conditions: HEK293, read-out: % Inhibition of Control Agonist Response, Cav1.2 (h) calcium ion channel cell based antagonist calcium flux assay
[9] = tested on: mice; conditions: mice i.p.; cited from earlier work
[10] = tested on: mice; conditions: mice i.p.; cited from earlier work; remark: listed apart in the source
[11] = tested on: mice; conditions: mice i.p.; cited from earlier work; remark: listed apart in the source
[12] = tested on: fast voltage-gated sodium currents in rat prefrontal cortex pyramidal neurons; parameters: method as in PMID 33647745; conditions: 1 µM; p < 0.01, n = 5; cited from earlier work
[13] = tested on: mice; parameters: method as in PMID 32929733; conditions: mice i.p.; cited from earlier work
[14] = tested on: mice; conditions: mice i.p., cited from earlier work
[15] = tested on: mice; parameters: method as in PMID 28934547; conditions: active only in a very high dose; cited from earlier work

T1 sequence (Q8NER1 whole entry): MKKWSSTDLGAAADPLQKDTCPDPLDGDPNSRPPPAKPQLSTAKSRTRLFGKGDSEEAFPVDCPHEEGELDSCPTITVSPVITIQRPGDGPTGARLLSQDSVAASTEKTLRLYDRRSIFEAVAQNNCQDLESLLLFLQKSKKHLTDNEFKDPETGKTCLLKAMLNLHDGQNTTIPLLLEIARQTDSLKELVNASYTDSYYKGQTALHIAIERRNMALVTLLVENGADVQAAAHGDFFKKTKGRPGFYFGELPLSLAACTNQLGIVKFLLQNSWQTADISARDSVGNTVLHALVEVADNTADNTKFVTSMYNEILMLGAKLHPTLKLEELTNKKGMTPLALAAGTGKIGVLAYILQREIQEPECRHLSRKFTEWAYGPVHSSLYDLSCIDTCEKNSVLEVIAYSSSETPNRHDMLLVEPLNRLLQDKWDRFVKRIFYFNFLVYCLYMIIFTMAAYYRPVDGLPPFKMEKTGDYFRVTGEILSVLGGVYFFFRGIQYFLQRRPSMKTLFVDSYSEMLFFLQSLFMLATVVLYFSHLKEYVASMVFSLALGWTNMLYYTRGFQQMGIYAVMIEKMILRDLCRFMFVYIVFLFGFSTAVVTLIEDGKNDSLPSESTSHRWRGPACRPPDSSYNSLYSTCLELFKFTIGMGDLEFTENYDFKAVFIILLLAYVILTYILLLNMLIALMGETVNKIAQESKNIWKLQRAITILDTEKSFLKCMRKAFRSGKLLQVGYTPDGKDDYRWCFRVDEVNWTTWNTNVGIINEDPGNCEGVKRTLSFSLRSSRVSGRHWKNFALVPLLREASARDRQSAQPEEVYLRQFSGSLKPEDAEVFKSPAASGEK
Chain of Cav1.2 (h) calcium ion channel (Q13936 whole entry): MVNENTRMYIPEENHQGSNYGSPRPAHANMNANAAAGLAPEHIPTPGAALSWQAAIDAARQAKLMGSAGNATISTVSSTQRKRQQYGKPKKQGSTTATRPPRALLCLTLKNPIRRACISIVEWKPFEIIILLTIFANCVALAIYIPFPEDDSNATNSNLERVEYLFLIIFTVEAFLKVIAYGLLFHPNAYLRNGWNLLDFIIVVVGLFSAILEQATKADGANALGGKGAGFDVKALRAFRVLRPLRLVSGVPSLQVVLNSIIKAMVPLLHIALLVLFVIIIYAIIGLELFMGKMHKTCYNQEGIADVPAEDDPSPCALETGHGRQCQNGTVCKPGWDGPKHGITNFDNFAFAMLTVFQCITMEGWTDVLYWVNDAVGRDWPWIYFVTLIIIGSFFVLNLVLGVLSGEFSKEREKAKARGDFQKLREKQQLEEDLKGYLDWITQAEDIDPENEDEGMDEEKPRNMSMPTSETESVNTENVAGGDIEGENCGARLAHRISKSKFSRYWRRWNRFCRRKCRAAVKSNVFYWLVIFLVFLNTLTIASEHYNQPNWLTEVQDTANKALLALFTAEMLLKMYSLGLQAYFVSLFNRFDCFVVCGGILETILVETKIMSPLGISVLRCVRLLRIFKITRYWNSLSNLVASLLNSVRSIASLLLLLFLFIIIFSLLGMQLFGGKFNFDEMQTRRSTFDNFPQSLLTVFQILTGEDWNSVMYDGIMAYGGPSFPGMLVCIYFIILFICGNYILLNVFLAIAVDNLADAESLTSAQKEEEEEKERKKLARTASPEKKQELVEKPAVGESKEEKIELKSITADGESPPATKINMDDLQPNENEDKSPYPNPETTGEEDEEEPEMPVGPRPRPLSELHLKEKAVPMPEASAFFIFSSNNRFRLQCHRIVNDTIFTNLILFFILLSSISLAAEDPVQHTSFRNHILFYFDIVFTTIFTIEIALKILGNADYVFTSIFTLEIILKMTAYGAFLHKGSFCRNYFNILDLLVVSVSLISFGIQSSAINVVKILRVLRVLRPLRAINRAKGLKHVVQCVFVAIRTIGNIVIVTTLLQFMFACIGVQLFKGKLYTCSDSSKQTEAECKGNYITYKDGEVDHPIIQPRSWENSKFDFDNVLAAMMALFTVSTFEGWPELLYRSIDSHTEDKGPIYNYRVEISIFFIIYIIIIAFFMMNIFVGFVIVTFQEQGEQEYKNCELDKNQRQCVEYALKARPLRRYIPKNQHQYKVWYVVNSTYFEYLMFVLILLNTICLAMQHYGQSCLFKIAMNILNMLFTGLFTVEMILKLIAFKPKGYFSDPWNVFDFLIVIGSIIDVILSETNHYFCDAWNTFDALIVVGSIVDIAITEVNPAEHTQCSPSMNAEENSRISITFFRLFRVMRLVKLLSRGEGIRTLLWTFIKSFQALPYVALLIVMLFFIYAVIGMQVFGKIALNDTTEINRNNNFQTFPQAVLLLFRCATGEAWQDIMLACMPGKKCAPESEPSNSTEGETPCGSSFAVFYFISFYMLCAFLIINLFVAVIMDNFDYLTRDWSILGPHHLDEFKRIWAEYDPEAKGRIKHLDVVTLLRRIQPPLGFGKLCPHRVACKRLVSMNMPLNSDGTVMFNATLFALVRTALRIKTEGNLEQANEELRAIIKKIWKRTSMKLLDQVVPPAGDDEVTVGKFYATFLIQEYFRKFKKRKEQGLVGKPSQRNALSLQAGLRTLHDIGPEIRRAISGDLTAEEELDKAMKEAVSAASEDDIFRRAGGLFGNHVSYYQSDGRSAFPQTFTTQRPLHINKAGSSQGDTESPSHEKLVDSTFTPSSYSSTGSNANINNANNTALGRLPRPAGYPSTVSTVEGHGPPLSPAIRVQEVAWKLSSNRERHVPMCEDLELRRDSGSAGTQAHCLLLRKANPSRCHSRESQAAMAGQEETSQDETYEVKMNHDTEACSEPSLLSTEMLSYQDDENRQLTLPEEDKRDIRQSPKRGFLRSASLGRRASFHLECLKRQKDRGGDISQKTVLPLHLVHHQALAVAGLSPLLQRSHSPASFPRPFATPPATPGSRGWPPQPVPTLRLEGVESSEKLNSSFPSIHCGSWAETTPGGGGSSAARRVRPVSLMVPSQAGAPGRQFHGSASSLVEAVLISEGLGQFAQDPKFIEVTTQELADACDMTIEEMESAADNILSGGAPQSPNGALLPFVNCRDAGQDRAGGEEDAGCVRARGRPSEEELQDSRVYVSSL
Chain of Cav1.2 (h) calcium ion channel (Q08289 whole entry partner): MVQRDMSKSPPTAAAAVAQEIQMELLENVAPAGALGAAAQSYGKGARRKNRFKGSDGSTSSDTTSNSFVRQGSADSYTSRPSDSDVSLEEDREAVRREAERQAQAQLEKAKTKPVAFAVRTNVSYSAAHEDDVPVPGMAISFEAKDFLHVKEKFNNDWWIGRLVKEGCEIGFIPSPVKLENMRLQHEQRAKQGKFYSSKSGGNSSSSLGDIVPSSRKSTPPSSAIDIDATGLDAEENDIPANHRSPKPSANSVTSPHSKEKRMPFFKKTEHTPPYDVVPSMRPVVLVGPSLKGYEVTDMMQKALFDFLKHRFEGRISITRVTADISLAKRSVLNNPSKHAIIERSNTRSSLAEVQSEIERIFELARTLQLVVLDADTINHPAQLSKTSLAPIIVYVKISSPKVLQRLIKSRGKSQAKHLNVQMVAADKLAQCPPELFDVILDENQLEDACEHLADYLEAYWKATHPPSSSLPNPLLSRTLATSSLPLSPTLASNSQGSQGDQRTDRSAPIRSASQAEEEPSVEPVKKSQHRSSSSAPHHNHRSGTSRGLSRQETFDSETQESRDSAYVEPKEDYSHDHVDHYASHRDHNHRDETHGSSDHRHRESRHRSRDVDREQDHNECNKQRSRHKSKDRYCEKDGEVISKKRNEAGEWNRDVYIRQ
Chain of Cav1.2 (h) calcium ion channel (P54289 25-956 partner limits assumed): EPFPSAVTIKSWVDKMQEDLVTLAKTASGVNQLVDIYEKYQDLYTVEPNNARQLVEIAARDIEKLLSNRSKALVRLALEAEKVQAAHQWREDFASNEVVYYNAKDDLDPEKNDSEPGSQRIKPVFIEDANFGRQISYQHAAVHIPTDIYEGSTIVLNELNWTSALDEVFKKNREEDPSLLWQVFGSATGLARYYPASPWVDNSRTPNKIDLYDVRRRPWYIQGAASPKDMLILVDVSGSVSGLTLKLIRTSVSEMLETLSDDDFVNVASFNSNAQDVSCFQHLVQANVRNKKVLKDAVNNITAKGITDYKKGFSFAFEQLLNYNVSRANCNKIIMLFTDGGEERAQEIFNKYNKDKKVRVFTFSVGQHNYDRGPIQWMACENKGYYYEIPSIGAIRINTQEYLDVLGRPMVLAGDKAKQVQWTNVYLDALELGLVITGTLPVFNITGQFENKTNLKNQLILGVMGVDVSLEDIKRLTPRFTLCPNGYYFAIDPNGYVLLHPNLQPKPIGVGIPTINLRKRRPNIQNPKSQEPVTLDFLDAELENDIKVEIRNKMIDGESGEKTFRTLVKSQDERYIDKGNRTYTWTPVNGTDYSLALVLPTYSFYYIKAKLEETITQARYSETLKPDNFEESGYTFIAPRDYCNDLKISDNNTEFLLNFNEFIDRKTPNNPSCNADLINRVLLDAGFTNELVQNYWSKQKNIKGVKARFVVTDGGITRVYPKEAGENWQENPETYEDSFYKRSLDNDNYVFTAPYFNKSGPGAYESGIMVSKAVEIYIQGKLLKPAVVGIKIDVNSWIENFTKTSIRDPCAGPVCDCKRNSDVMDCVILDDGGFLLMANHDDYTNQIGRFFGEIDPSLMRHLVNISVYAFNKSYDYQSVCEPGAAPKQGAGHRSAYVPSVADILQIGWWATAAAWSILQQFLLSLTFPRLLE
Chain of Cav1.2 (h) calcium ion channel (P54289 957-1103 partner limits assumed): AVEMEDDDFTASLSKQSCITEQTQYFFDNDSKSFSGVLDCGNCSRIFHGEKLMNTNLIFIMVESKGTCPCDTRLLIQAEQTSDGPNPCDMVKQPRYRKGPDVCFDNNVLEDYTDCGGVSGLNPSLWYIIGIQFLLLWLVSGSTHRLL

Structure (SMILES) | ED50 [1] [mg/kg] | MES screening: number of mice protected / number of mice tested [1] | ED50 [2] [mg/kg] | 6 Hz (32 mA) screening: number of mice protected / number of mice tested [2] | protection in the 6 Hz (32 mA) test [2] [%] | ED50 [3] [mg/kg] | scPTZ screening: number of mice protected / number of mice tested [3] | melting point [°C] | TD50 [4] [mg/kg] | other results
CN(C)C1CC(=O)N([C@@H](C(=O)N2CCN(c3cccc(C(F)(F)F)c3)CC2)c2ccccc2)C1=O.Cl (stereo partly drawn) [(C1-R)-31, 3-Dimethylamino-1-((R)-oxo-1-phenyl-2-(4-(3-(trifluoromethyl)phenyl)-piperazin-1-yl)ethyl)pyrrolidine-2,5-dione hydrochloride] | 57.7 | 4/4 | 50.9 | 3/4 | 75 | 65.5 | 3/4 | 169.8 to 170.6 | 94.9 | protection in the MES test [1]: 100%; protection in the scPTZ test [3]: 75%
CN(C)C1CC(=O)N([C@@H](C(=O)N2CCN(c3cccc(OC(F)(F)F)c3)CC2)c2ccccc2)C1=O.Cl (stereo partly drawn) [(C1-R)-32, 3-Dimethylamino-1-((R)-2-oxo-1-phenyl-2-(4-(3-(trifluoromethoxy)phenyl)piperazin-1-yl)ethyl)pyrrolidine-2,5-dione hydrochloride] | 26.3 | 4/4 | 28.3 | 3/4 | 75 | 44.9 | 3/4 | 164.8 to 165.7 | 72 | protection in the MES test [1]: 100%; protection in the scPTZ test [3]: 75%; % Inhibition of Control-Specific Binding, TTX-sensitive Na+ channel ([5]; 10 µM): 33.4%; % Inhibition of Control-Specific Binding, TTX-sensitive Na+ channel ([5]; 50 µM): 101.9%; inhibition at 10 µM ([6]; 10 µM): 8.5%; inhibition at 50 µM ([6]; 50 µM): 44.6%; % Inhibition of Control-Specific Binding, Cav1.2 channel (dihydropyridine site, antagonist radioligand) ([7]; 10 µM): 18.6%; % Inhibition of Control-Specific Binding, Cav1.2 channel (dihydropyridine site, antagonist radioligand) ([7]; 50 µM): 88.9%; inhibition at 10 µM [8]: 38%
CN(C)C1CC(=O)N([C@@H](C(=O)N2CCN(c3cccc(SC(F)(F)F)c3)CC2)c2ccccc2)C1=O.Cl (stereo partly drawn) [(C1-R)-33, 3-Dimethylamino-1-((R)-2-oxo-1-phenyl-2-(4-(3-((trifluoromethyl)thio)phenyl)piperazin-1-yl)ethyl)pyrrolidine-2,5-dione hydrochloride] | – | 1/4 | – | 1/4 | – | – | 1/4 | 173.2 to 174.7 | – | –
CN(C)C1CC(=O)N([C@H](C(=O)N2CCN(c3cccc(C(F)(F)F)c3)CC2)c2ccccc2)C1=O.Cl (stereo partly drawn) [(C1-S)-31, 3-Dimethylamino-1-((S)-oxo-1-phenyl-2-(4-(3-(trifluoromethyl)phenyl)-piperazin-1-yl)ethyl)pyrrolidine-2,5-dione hydrochloride] | – | 1/4 | > 130 | 2/4 | – | – | 1/4 | 169.2 to 170.8 | 188 | –
CNC1CC(=O)N(C(C(=O)N2CCN(c3cccc(C(F)(F)F)c3)CC2)c2ccccc2)C1=O.Cl (stereo not drawn) [Compound 13, 3-(Methylamino)-1-(2-oxo-1-phenyl-2-(4-(3-(trifluoromethyl)phenyl)piperazin-1-yl)ethyl)pyrrolidine-2,5-dione hydrochloride] | – | 1/4 | 93.6 | 2/4 | 50 | 85.6 | 2/4 | 161.2 to 163.4 | – | –
CCN(CC)C1CC(=O)N(C(C(=O)N2CCN(c3cccc(C(F)(F)F)c3)CC2)c2ccccc2)C1=O.Cl (stereo not drawn) [Compound 15, 3-(Diethylamino)-1-(2-oxo-1-phenyl-2-(4-(3-(trifluoromethyl)phenyl)piperazin-1-yl)ethyl)pyrrolidine-2,5-dione hydrochloride] | 77.5 | 4/4 | 80.4 | 3/4 | 75 | – | 1/4 | 142.2 to 143.1 | 247 | protection in the MES test [1]: 100%
Cl.O=C(C(c1ccccc1)N1C(=O)CC(N2CCOCC2)C1=O)N1CCN(c2cccc(C(F)(F)F)c2)CC1 (stereo not drawn) [Compound 16, 3-Morpholino-1-(2-oxo-1-phenyl-2-(4-(3-(trifluoromethyl)phenyl)piperazin-1-yl)ethyl)pyrrolidine-2,5-dione hydrochloride] | – | 0/4 | – | 0/4 | – | – | 1/4 | 146.2 to 147.5 | – | –
CN(C)C1CC(=O)N(C(C(=O)N2CCN(c3cccc(OC(F)(F)F)c3)CC2)c2ccccc2)C1=O.Cl (stereo not drawn) [Compound 17, 3-Dimethylamino-1-(2-oxo-1-phenyl-2-(4-(3-(trifluoromethoxy)phenyl)piperazin-1-yl)ethyl)pyrrolidine-2,5-dione hydrochloride] | 33.3 | 3/4 | 28.2 | 2/4 | 50 | 31.3 | 3/4 | 152.3 to 153.5 | 69.7 | protection in the MES test [1]: at least 75%; protection in the scPTZ test [3]: 75%
CN(C)C1CC(=O)N(C(C(=O)N2CCN(c3cccc(SC(F)(F)F)c3)CC2)c2ccccc2)C1=O.Cl (stereo not drawn) [Compound 18, 3-Dimethylamino-1-(2-oxo-1-phenyl-2-(4-(3-((trifluoromethyl)thio)phenyl)piperazin-1-yl)ethyl)pyrrolidine-2,5-dione hydrochloride] | – | 1/4 | – | 1/4 | – | – | 1/4 | 170.1 to 171.5 | – | –
CCC1(C)CC(=O)NC1=O (stereo not drawn) [ETX, ethosuximide, reference compound] | – | – | > 200 | – | – | 140 | – | – | – | –
O=C([C@@H](c1ccccc1)N1C(=O)CCC1=O)N1CCN(c2cccc(C(F)(F)F)c2)CC1 [II] | – | – | – | – | – | – | – | – | – | ED50 MES [9]: 36.0 (31.4–41.2) mg/kg; ED50 6 Hz (32 mA) [10]: 39.2 (31.6–48.6) mg/kg; ED50 scPTZ [11]: 54.8 (43.5–69.1) mg/kg; maximal sodium current amplitude normalized to control (1.0) [12]: 0.75 ± 0.04
O=C(C(c1ccccc1)N1C(=O)CCC1=O)N1CCN(c2cccc(C(F)(F)F)c2)CC1 (stereo not drawn) [I] | – | – | – | – | – | – | – | – | – | ED50 MES [9]: 23.7 (18.4–31.2) mg/kg; ED50 6 Hz (32 mA) [10]: 22.4 (17.4–28.8) mg/kg; ED50 scPTZ [11]: 59.4 (37.5–94.1) mg/kg; ED50 6 Hz (44 mA) [13]: 73.2 (57.4–93.4) mg/kg; TD50 (rotarod test) ([14]; Table 2): 195.7 (132.7–288.6) mg/kg; TD50 (rotarod test) [14]: 195.7 (132.7–288.6) mg/kg
COC[C@@H](NC(C)=O)C(=O)NCc1ccccc1 [LCS, lacosamide] | – | – | – | – | – | – | – | – | – | ED50 6 Hz (44 mA) [13]: 6.9 (5.4–8.6) mg/kg
CC[C@@H](C(N)=O)N1CCCC1=O [LEV, levetiracetam, reference compound] | > 500 | – | – | – | – | – | – | – | > 500 | ED50 6 Hz (44 mA) [13]: >500 mg/kg; TD50 (rotarod test) ([14]; Table 2): >500 mg/kg
CCCC(CCC)C(=O)O [VPA, valproic acid, reference compound] | – | – | – | – | – | 239 | – | – | – | dose active in the capsaicin test [15]: 200 mg/kg
